Literature values as cited in paper PMC7687107 (Chemmedchem, 2020).

Target: tRNA guanine transglycosylase (TGT) (Zymomonas mobilis, UniProt P28720)
Experiment: SPR
Type: binding

Sequence of tRNA guanine transglycosylase (TGT) (P28720 2-386): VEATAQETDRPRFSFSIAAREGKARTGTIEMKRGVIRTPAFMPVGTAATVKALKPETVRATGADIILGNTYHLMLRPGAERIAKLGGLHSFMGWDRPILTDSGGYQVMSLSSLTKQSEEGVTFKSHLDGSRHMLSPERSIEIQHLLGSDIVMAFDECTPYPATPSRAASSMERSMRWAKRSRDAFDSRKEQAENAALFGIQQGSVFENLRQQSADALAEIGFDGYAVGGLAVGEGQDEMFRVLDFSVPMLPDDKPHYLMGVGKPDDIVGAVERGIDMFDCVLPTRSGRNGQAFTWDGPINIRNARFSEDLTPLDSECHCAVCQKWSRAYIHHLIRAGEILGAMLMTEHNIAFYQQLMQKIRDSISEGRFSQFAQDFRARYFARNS

Kd: 0.068 ± 0.005 µM
SMILES: CNc1nc2c(CCC3OC(OC)C(O)C3O)c3[nH]c(N)nc(=O)c3cc2[nH]1 (stereo not shown) [compound 1, 6‐amino‐4‐[2‐(3,4‐dihydroxy‐5‐methoxyoxolan‐2‐yl)ethyl]‐2‐(methylamino)‐1H,5H‐imidazo[4,5‐g]quinazolin‐8‐one]
